We go through 2 compounds from patent US20070117770A1, “Human ribosomal DNA (rDNA) and ribosomal RNA (rRNA) nucleic acids and uses thereof” (Cylene Pharmaceuticals, Inc., priority 2005, published 2007).

Holding throughout (assay): Protein kinase inhibition assay
The target of one assay is PKCθ(h) (Homo sapiens, UniProt Q04759). The assay is classed as biochemical. The note with it: read-out: percent residual activity of PKCθ(h). As for the experimental part: (§1) Certain compounds were tested for activity in protein kinase inhibition assays. All substrates were dissolved and diluted to working stocks in de-ionized water, apart from histone H1 (10× working stock in 20 mM MOPS pH 7.0), PDKtide (10× working stock in 50 mM Tris pH 7.0) ATF2 (which is typically stored at a 20× working stock in 50 mM Tris pH 7.5, 150 mM NaCl, 0.1 mM EGTA, 0.03% Brij-35, 50% glycerol, 1 mM benzamidine, 0.2 mM PMSF and 0.1% R-mercaptoethanol), KKLNRTLSFAEPG (SEQ ID NO:203) and RRRLSFAEPG (SEQ ID NO:204) (50 mM HEPES pH 7.4) and GGEEEEYFELVKKKK (SEQ ID NO:205) (20 mM MOPS pH 7.0). All kinases were pre-diluted to a 10× working concentration prior to addition into the assay. The composition of the dilution buffer for each kinase is detailed below.
(§2) In a final reaction volume of 25 μl, PKCθ (h) (5-10 mU) is incubated with 8 mM MOPS pH 7.0, 0.2 mM EDTA, 0.1 mg/ml histone H1, 10 mM MgAcetate and [gamma-33P-ATP] (specific activity approx. 500 cpm/pmol, concentration as required). The reaction is initiated by the addition of the MgATP mix. After incubation for 40 minutes at room temperature, the reaction is stopped by the addition of 5 μl of a 3% phosphoric acid solution. 10 μl of the reaction is then spotted onto a P30 filtermat and washed three times for 5 minutes in 75 mM phosphoric acid and once in methanol prior to drying and scintillation counting.

A further assay concerns the target CHK1(h) (Homo sapiens, UniProt O14757). Format: biochemical. The note with it: read-out: percent residual activity of CHK1(h). As for the experimental part:
as §1
as §2, with “CHK1” for “PKCθ”, “200 μM […] (SEQ ID NO:213),” for “0.1 mg/ml histone H1,”

For another assay, the system named is CaMKII(r). Format: biochemical, rat. The note with it: 2.5 μM. As for the experimental part: as §1
In a final reaction volume of 25 μl, CaMKII (r) (5-10 mU) is incubated with 40 mM HEPES pH 7.4, 5 mM CaCl2, 30 μg/ml calmodulin, 30 μM KKLNRTLSVA (SEQ ID NO:212), 10 mM MgAcetate and [gamma-33P-ATP] (specific activity approx. 500 cpm/pmol, concentration as required). The reaction is initiated by the addition of the MgATP mix. After incubation for 40 minutes at room temperature, the reaction is stopped by the addition of 5 μl of a 3% phosphoric acid solution. […]

The target in a further assay is Met(h) (Homo sapiens, UniProt P08581). The assay is classed as biochemical. The note with it: read-out: percent residual activity of Met(h). As for the experimental part:
as §1
as §2, with “25 μl, Met (h) (5-10” for “25 μl, PKCθ (h) (5-10”, “mM EDTA, 250 μM KKKSPGEYVNIEFG (SEQ ID NO:207), 10 mM” for “mM EDTA, 0.1 mg/ml histone H1, 10 mM”, “MgAcetate and [y-33P-ATP] (specific activity” for “MgAcetate and [gamma-33P-ATP] (specific activity”, “prior to a drying and” for “prior to drying and”

The target in the next assay is MAPK1(h) (Homo sapiens, UniProt P27361). Format: biochemical. The note with it: read-out: percent residual activity of MAPK1(h). As for the experimental part:
as §1
as §2, with “MAPK1” for “PKCθ”, “25” for “8”, “Tris” for “MOPS”, “7.5, 0.02” for “7.0, 0.2”, “EGTA, 250 μM peptide,” for “EDTA, 0.1 mg/ml histone H1,”

A further assay deals with Rse(h) (Homo sapiens, UniProt Q06418). The assay is classed as biochemical. The note with it: read-out: percent residual activity of Rse(h). As for the experimental part: as §1
In a final reaction volume of 25 μl, Rse (h) (5-10 mU) is incubated with 8 mM MOPS pH 7.0, 0.2 mM EDTA, 250 μM KVEKIGEGTYGVVYK (SEQ ID NO:211), 1 mM MnCl2, 10 mM MgAcetate and [gamma-33P-ATP] (specific activity approx. 500 cpm/pmol, concentration as required). The reaction is initiated by the addition of the MgATP mix. After incubation for 40 minutes at room temperature, the reaction is stopped by the addition of 5 μl of a 3% phosphoric acid solution. […]

MAPK1(h), sequence (P27361 whole entry): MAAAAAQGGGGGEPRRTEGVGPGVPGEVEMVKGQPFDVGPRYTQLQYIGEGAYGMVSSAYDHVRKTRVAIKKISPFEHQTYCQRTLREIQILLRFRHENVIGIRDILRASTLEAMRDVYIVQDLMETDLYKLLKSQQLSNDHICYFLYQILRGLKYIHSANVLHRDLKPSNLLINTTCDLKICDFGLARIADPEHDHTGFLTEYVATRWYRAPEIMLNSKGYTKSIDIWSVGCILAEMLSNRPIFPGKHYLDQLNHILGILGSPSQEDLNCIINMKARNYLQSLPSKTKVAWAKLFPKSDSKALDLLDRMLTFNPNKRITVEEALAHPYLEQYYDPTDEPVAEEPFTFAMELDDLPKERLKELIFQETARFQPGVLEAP
PKCθ(h), sequence (Q04759 whole entry): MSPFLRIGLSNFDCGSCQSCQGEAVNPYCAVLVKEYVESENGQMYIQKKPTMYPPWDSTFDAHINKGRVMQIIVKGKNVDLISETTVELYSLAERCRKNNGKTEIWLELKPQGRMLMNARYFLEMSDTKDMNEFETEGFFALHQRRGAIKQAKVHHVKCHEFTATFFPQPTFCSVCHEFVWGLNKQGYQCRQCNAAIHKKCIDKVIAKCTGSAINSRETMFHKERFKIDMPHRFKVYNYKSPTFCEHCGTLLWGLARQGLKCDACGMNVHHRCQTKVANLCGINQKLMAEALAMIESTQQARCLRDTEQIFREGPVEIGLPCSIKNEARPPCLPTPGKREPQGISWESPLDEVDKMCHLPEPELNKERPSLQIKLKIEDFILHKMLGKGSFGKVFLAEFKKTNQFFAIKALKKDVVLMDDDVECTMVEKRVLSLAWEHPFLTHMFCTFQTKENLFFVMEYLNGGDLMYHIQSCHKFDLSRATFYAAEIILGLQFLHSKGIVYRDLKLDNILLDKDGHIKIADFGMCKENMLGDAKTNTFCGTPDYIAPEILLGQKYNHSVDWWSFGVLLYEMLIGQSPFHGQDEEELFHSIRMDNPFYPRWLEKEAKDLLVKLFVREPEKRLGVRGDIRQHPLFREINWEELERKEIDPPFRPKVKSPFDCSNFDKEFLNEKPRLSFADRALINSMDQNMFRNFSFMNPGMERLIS
CHK1(h), sequence (O14757 whole entry): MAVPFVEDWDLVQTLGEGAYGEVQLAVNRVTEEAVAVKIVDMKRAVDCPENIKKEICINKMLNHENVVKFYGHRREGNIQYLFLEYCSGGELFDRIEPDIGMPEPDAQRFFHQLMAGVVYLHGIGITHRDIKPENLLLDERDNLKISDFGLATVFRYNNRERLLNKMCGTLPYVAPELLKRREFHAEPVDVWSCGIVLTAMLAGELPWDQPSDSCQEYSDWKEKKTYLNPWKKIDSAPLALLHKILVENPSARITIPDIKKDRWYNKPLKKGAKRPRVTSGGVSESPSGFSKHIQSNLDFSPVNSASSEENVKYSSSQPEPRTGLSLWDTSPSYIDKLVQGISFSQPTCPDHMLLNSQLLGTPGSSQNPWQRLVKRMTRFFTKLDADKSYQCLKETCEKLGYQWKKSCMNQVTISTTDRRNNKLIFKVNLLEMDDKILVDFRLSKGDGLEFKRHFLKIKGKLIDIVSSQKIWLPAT
Rse(h), sequence (Q06418 41-890): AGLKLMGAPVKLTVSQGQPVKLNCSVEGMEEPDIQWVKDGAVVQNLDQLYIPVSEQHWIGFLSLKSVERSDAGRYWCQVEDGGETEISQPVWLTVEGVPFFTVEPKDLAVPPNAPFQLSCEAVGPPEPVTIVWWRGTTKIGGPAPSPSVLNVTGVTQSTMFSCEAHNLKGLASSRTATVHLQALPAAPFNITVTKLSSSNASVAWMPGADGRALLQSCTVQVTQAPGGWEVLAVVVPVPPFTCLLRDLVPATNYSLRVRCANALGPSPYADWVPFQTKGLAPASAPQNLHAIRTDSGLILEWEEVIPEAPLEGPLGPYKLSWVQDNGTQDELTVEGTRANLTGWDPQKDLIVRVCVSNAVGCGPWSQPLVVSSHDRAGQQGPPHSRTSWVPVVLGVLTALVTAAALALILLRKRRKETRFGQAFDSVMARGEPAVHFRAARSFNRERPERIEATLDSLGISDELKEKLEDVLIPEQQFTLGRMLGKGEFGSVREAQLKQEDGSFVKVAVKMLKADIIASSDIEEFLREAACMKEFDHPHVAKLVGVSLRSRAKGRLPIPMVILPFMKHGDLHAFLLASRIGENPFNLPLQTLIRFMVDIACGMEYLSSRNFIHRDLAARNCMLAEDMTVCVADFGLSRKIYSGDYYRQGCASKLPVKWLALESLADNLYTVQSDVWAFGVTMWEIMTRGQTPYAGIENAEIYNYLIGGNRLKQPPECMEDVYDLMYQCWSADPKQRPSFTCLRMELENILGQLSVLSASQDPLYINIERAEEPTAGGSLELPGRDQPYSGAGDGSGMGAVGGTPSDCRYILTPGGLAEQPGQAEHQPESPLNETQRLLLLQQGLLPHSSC
Met(h), sequence (P08581 25-1390): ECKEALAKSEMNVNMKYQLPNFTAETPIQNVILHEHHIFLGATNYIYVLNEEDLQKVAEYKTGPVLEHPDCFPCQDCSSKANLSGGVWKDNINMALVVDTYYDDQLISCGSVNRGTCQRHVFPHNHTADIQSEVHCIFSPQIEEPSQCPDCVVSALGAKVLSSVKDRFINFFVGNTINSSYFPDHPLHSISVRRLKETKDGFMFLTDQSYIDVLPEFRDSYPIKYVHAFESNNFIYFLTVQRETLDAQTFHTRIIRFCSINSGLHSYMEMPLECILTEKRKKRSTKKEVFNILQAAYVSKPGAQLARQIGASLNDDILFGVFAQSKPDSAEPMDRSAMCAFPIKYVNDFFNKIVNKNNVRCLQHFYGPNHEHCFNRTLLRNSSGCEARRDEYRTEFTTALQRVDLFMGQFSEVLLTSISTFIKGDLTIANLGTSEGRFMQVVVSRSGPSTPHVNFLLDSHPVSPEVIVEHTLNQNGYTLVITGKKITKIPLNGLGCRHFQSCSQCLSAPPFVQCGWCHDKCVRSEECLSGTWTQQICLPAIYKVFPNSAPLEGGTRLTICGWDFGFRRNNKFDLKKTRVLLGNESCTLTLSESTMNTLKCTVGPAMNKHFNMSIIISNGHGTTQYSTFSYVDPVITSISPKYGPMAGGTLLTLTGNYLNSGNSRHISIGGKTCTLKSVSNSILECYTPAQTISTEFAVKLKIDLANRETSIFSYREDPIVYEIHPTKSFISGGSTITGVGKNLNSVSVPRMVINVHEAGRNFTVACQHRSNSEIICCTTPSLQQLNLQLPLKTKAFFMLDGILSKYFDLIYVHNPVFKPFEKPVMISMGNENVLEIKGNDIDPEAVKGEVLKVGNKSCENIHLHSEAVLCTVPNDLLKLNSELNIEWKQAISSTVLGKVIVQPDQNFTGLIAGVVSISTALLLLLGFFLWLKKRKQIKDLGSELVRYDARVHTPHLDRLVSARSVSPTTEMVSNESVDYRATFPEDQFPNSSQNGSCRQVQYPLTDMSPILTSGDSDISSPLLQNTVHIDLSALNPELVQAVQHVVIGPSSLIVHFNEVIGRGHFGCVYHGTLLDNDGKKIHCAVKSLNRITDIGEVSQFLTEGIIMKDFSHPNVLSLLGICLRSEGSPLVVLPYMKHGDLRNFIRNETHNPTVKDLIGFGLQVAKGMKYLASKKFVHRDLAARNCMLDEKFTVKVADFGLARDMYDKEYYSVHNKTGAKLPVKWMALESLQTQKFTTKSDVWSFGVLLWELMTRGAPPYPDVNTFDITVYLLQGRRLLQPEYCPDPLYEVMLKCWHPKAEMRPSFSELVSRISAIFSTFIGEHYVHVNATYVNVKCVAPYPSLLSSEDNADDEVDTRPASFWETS

Regarding `CN1CCCC1CCNC(=O)c1cn2c3c(c(N4CCC(c5cnccn5)C4)c(F)cc3c1=O)Oc1cc3ccccc3cc1-2` (stereo not drawn) [Compound A-1], the remaining activity at 2.5 µM at PKCθ(h) came out at 91%; on CHK1(h), 95%; at Met(h), 132%; on MAPK1(h), 92%; on Rse(h), 92%. Also, the “percent residual activity of CaMKII(r)” value in the assay with CaMKII(r) came to 107%.
In the case of `CC(=O)N1CCN(c2ccc3c(=O)c(C(=O)NCCN4CCCC4)c4n(C)c5ccccc5n4c3n2)CC1` [Compound B-1], the remaining activity at 2.5 µM stood at 108% on PKCθ(h); 106% at CHK1(h); 115% at Met(h); 94% at MAPK1(h); 92% on Rse(h). Moreover, in the assay on CaMKII(r), the “percent residual activity of CaMKII(r)” value is 113%.
